The experiment concerns CXCL10 secretion induced by poly(I:C) in HaCaT cells. The experiment in a line: poly(I:C)-induced CXCL10 secretion assay in HaCaT cells (ELISA). Type of experiment: cell-based, Human. The conditions noted are these: poly(I:C) 20 μg/ml, 48 hours. How it is done:
In another CXCL10 assay, immortalized keratinocytes (HaCaTs) cells (AddexBio #T0020001) were cultured in DMEM (Thermo Fisher #10566-016) supplemented with 10% FBS and 1% penicillin/streptomycin. 1×10^5 HaCaT cells were seeded per well of a 24-well culture dish in 400 μl culture medium. Once confluent, medium was aspirated and cells were pretreated with 200 μl of DMSO vehicle (0.1%) or 3-fold serial dilutions ([…]) of 7-(2-(methyloxy)-6-{[(4-methyl-2-pyridinyl)methyl]oxy}-phenyl)-2,3,4,5-tetrahydro-1H-3-benzazepine (Compound 1) for 30 minutes at 37° C. with 5% CO2. After pre-treatment, 200 μl of poly(I:C) at 40 μg/ml was added per well (without removal of pre-treatment medium), making the final treatment concentration 20 μg/ml. Additional compound and/or DMSO was included to maintain concentrations. All samples received 0.1% DMSO during both pre-treatment and treatment phases. Cells were returned to the incubator for 48 hours. Each condition had biological triplicates.
At 48 hours, supernatants were collected, centrifuged to pellet debris, and then re-collected. CXCL10 secreted into the supernatant was measured by the Human CXCL10/IP-10 Quantikine ELISA Kit (R&D Systems #DIP 100) according to the manufacturer's protocol. […]

In the case of `COc1cccc(OCc2cc(C)ccn2)c1-c1ccc2c(c1)CCNCC2` [Compound 1, 7-(2-(methyloxy)-6-{[(4-methyl-2-pyridinyl)methyl]oxy}-phenyl)-2,3,4,5-tetrahydro-1H-3-benzazepine], the “CXCL10 secretion induced by poly(I:C), percentage of maximum stimulation (vehicle = 100%)” value (30 min pre-treatment, supernatant ELISA, FIG. 1) is reported as “dose-dependent decrease”. The “dose concentration at which maximal inhibition of CXCL10 secretion was observed” value (highest concentration tested) came out at 10 µM.

The values above are taken from patent publication US20180207172A1, “TREATMENT FOR VITILIGO” (GLAXO GROUP LIMITED, priority 2015, published 2018).
